14 compounds from patent US9096593B2, “Compounds and methods for kinase modulation, and indications therefor” (Plexxikon Inc., priority 2009, dated 2015) can be followed below.

SMILES strings stand for the structures. Like-named read-outs stand apart in the source and are kept apart here.

One data set addresses BCR-FMS/BaF3 cells (Homo sapiens, UniProt P07333). The data set can be described thus: BCR-FMS/BaF3 cell proliferation assay (ATPlite). In kind it is cell-based. The note with it: for BCR/BaF3 selectivity (Kit IC50/Fms IC50): Kit IC50/Fms IC50, BCR-KIT/BaF3 vs BCR-FMS/BaF3 cells; for IC50: BCR-FMS/BaF3 cells. The method, boiled down:
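Proliferation read by ATPlite luminescence after 3 days' exposure (37 °C, 5% CO2) to compound in 1:3 dilutions, eight points, maximum 10 μM final, DMSO control.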
(In general: Cellular ATP, detected with luciferase, serves as a proxy for viable cell number.)

The next data set concerns the target c-Kit kinase (Homo sapiens (Human), UniProt P10721). Briefly: c-Kit kinase biochemical activity assay (AlphaScreen, biotin-(E4Y)10 phosphorylation). (Bead proximity is the source of the signal in Alpha formats.)
The next data set has as its target CYP3A4(BQ) (Homo sapiens (Human), UniProt P08684). The data set can be described thus: CYP enzyme inhibition, fluorescent substrate. The method, boiled down: (§1)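 […]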

In another data set the target is CYP2D6 (Homo sapiens (Human), UniProt P10635). The data set can be described thus: CYP enzyme inhibition, fluorescent substrate. The note with it: read-out: Cyp IC50 (μM) 2D6.
The target in another data set is CYP1A2 (Homo sapiens (Human), UniProt P05177). The data set can be described thus: CYP enzyme inhibition, fluorescent substrate.
Another data set concerns the target CYP2C9 (Homo sapiens (Human), UniProt P11712). Briefly: CYP enzyme inhibition, fluorescent substrate. The method, boiled down:
as §1

A further data set has as its target CYP3A4(BFC) (Homo sapiens (Human), UniProt P08684). Briefly: CYP enzyme inhibition, fluorescent substrate. The method, boiled down:
as §1

The mark [1] stands for this setting: read-out: BCR/BaF3 (IC50 μM) Fms.
The mark [2] stands for this setting: read-out: Cell based (IC50 μM) BCR/BaF3 (Fms), 3 days.
Where [3] appears, read: human, CYP2C9 enzyme (BD Biosciences), 45 min.
Where [4] appears, read: read-out: Cyp IC50 (μM) 3A4(BQ), BQ substrate.
Where [5] appears, read: read-out: Cyp IC50 (μM) 3A4(BFC), BFC substrate.

Sequence of CYP2C9 (P11712 whole entry): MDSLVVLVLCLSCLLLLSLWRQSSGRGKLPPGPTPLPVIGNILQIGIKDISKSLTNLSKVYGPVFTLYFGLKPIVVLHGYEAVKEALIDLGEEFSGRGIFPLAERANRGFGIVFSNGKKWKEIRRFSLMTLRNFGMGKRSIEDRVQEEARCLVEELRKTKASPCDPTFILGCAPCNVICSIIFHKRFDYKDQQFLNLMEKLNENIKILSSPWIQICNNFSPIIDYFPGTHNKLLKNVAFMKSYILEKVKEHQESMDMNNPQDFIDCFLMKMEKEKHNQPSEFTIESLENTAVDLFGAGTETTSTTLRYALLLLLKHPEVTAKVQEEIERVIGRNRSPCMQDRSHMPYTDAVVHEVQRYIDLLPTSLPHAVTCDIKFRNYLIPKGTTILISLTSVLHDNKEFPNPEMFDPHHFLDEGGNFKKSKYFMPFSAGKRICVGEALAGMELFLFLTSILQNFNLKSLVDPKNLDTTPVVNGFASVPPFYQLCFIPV
Sequence of CYP2D6 (P10635 whole entry): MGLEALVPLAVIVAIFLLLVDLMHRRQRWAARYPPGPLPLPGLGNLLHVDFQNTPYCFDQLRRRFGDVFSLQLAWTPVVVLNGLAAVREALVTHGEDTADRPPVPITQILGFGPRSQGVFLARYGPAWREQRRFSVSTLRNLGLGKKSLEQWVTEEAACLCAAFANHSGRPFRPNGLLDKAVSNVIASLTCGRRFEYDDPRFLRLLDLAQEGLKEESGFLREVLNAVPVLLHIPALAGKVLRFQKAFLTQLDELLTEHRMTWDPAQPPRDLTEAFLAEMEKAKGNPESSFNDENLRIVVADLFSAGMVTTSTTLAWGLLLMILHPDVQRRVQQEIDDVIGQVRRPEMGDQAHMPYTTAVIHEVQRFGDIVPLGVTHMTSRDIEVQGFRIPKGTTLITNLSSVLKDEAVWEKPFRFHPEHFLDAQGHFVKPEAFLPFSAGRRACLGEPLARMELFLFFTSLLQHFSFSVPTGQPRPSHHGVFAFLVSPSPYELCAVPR
Sequence of BCR-FMS/BaF3 cells (P07333 20-972 limits assumed, change not shown): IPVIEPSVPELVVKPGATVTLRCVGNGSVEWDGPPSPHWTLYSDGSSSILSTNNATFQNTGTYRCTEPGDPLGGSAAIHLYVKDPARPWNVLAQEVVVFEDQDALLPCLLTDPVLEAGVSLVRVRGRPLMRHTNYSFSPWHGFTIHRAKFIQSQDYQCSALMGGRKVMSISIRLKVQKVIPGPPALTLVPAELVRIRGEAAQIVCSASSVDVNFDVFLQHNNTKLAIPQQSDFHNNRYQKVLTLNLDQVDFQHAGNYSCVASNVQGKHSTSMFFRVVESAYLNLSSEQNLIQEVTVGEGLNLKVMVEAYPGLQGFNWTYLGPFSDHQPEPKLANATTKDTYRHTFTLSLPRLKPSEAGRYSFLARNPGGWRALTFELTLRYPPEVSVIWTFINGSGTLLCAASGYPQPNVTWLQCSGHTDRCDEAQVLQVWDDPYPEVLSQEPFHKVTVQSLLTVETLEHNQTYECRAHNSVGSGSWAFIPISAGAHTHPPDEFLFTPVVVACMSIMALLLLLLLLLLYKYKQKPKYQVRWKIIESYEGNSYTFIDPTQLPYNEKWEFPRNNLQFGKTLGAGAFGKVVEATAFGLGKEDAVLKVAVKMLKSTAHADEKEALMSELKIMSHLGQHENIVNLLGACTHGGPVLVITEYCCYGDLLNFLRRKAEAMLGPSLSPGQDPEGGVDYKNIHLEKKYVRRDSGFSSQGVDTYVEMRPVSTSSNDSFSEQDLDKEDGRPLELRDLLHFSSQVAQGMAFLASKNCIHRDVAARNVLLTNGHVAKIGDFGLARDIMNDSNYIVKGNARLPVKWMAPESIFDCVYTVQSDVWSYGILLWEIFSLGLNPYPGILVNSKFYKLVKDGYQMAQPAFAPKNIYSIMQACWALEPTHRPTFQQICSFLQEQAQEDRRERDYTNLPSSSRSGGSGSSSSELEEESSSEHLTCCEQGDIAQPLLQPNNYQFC
Sequence of CYP3A4(BQ) (P08684 whole entry): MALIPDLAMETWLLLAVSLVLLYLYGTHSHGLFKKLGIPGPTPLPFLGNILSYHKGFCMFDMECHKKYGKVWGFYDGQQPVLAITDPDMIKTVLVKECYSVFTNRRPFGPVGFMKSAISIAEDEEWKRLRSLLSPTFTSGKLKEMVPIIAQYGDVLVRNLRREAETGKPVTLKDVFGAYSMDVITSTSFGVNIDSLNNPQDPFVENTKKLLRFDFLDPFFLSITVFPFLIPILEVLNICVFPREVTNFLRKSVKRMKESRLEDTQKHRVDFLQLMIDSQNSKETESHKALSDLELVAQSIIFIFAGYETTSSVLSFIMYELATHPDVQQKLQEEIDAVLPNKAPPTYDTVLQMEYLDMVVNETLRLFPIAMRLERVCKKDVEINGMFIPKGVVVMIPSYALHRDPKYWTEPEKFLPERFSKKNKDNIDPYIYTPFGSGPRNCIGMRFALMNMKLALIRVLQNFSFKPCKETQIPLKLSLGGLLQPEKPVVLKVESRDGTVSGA
Sequence of CYP3A4(BFC) (P08684 whole entry): as above
Sequence of c-Kit kinase (P10721 26-976): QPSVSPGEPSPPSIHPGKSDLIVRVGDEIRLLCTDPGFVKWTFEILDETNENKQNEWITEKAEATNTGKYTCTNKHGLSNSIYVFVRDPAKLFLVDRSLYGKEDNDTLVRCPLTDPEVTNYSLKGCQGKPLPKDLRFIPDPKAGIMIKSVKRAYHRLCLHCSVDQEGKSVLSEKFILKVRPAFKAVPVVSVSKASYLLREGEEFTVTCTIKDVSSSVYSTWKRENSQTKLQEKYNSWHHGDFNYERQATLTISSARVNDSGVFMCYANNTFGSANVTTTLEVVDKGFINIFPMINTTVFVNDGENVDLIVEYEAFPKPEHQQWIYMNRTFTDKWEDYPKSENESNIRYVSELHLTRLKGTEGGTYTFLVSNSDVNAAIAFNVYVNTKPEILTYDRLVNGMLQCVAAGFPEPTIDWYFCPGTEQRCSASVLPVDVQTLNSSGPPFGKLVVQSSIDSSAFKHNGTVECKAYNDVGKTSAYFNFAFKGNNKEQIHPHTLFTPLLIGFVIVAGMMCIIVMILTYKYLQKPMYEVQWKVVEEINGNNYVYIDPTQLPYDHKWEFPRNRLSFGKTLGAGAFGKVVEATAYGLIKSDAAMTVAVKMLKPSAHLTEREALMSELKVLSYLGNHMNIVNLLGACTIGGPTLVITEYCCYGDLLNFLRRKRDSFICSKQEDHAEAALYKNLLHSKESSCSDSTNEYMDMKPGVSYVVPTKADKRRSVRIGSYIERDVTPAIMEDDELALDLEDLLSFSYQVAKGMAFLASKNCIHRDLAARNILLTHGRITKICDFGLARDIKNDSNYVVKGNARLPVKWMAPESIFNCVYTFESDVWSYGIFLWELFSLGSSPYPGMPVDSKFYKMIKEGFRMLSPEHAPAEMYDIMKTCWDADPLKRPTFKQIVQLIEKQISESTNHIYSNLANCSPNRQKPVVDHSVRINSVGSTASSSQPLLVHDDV
Sequence of CYP1A2 (P05177 whole entry): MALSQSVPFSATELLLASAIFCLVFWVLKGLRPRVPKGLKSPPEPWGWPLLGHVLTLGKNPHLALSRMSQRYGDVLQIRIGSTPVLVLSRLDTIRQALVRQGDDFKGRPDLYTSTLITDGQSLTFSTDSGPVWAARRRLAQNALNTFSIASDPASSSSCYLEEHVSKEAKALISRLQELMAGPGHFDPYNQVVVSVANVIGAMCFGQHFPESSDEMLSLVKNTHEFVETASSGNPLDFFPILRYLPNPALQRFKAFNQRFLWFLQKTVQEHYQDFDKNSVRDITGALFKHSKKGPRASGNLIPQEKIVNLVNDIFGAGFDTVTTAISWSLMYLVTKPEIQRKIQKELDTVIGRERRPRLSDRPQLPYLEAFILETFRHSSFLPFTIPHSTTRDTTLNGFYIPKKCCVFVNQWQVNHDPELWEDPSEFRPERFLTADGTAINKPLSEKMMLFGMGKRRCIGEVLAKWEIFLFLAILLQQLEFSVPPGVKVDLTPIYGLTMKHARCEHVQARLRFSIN

`Cc1cnc2[nH]cc(Cc3ccc(NCc4ccc(C(F)(F)F)nc4)nc3F)c2c1` [Compound P-2031, [6-Fluoro-5-(5-methyl-1H-pyrrolo[2,3-b]pyridin-3-ylmethyl)-pyridin-2-yl]-(6-trifluoromethyl-pyridin-3-ylmethyl)-amine]: the “BCR/BaF3 selectivity (Kit IC50/Fms IC50)” value at BCR-FMS/BaF3 cells was above 20. For the same compound, the IC50 at BCR-FMS/BaF3 cells (setting [1]) was below 0.1 µM; at BCR-FMS/BaF3 cells (setting [2]) it was below 0.1 µM; against c-Kit kinase it was above 0.1 µM; at CYP3A4(BQ) it was 5 to 10 µM; at CYP2D6, above 10 µM; against CYP1A2 (human, 15 min), above 10 µM. Moreover, the values for the IC50 against CYP2C9 (setting [3]) and on CYP3A4(BFC) were below 5 µM and 5 to 10 µM, respectively.
`COc1cnc2[nH]cc(Cc3ccc(NCc4ccc(Cl)cc4)nc3F)c2c1` [Compound P-2032, (4-Chloro-benzyl)-[6-fluoro-5-(5-methoxy-1H-pyrrolo[2,3-b]pyridin-3-ylmethyl)-pyridin-2-yl]-amine]: the “BCR/BaF3 selectivity (Kit IC50/Fms IC50)” value at BCR-FMS/BaF3 cells was below 20. Further, the IC50 is below 0.1 µM on BCR-FMS/BaF3 cells (setting [1]); below 0.1 µM on BCR-FMS/BaF3 cells (setting [2]); below 0.1 µM against c-Kit kinase; above 10 µM at CYP3A4(BQ) (setting [4]); above 10 µM at CYP2D6; 5 to 10 µM against CYP1A2. Further, the IC50 was below 5 µM against CYP2C9 (setting [3]) and above 10 µM on CYP3A4(BFC) (setting [5]).
Regarding `COc1ccnc2[nH]cc(Cc3ccc(NCc4ccc(Cl)cc4)nc3F)c12` [Compound P-2037, (4-Chloro-benzyl)-[6-fluoro-5-(4-methoxy-1H-pyrrolo[2,3-b]pyridin-3-ylmethyl)-pyridin-2-yl]-amine], on BCR-FMS/BaF3 cells, the “BCR/BaF3 selectivity (Kit IC50/Fms IC50)” value is given as below 20. For the same compound, the IC50 is below 0.1 µM at BCR-FMS/BaF3 cells (setting [1]); below 0.1 µM on BCR-FMS/BaF3 cells (setting [2]); above 0.1 µM against c-Kit kinase; above 10 µM on CYP3A4(BQ) (setting [4]); above 10 µM at CYP2D6; above 10 µM against CYP1A2 (human, 15 min). The results for the IC50 at CYP2C9 (read-out: Cyp IC50 (μM) 2C9) and at CYP3A4(BFC) were below 5 µM and 5 to 10 µM, respectively.
On to `COc1ncccc1CNc1ccc(Cc2c[nH]c3ncc(C)cc23)c(F)n1` [Compound P-2052, [6-Fluoro-5-(5-methyl-1H-pyrrolo[2,3-b]pyridin-3-ylmethyl)-pyridin-2-yl]-(2-methoxy-pyridin-3-ylmethyl)-amine], for which the “BCR/BaF3 selectivity (Kit IC50/Fms IC50)” value on BCR-FMS/BaF3 cells is above 20. Besides, the IC50 on BCR-FMS/BaF3 cells (setting [1]) was below 0.1 µM; against c-Kit kinase, above 0.1 µM; against CYP3A4(BQ) it was 5 to 10 µM; on CYP2D6, above 10 µM; against CYP1A2 (human, 15 min) it was above 10 µM; on CYP2C9, 5 to 10 µM. Further, the IC50 on CYP3A4(BFC) fell in the range of 5 to 10 µM.
Turning to `COc1ccc(CNc2ncc(Cc3c[nH]c4ncc(C)cc34)cn2)cn1` [Compound P-2057, (6-Methoxy-pyridin-3-ylmethyl)-[5-(5-methyl-1H-pyrrolo[2,3-b]pyridin-3-ylmethyl)-pyrimidin-2-yl]-amine], on BCR-FMS/BaF3 cells, the “BCR/BaF3 selectivity (Kit IC50/Fms IC50)” value was above 20. For the same compound, the IC50 was below 0.1 µM at BCR-FMS/BaF3 cells (setting [1]); below 0.1 µM on BCR-FMS/BaF3 cells (setting [2]); above 0.1 µM at c-Kit kinase; above 10 µM at CYP3A4(BQ) (setting [4]); above 10 µM at CYP2D6; above 10 µM on CYP1A2 (human, 15 min). The IC50 is 5 to 10 µM at CYP2C9 and above 10 µM at CYP3A4(BFC) (setting [5]).
Take `COc1ncc(F)cc1CNc1ncc(Cc2c[nH]c3ncc(C)cc23)cn1` [Compound P-2061, (5-Fluoro-2-methoxy-pyridin-3-ylmethyl)-[5-(5-methyl-1H-pyrrolo[2,3-b]pyridin-3-ylmethyl)-pyrimidin-2-yl]-amine]: on BCR-FMS/BaF3 cells, the “BCR/BaF3 selectivity (Kit IC50/Fms IC50)” value is reported as above 20. The IC50 is below 0.1 µM at BCR-FMS/BaF3 cells (setting [1]); above 0.1 µM at c-Kit kinase; 5 to 10 µM on CYP3A4(BQ); above 10 µM at CYP2D6; above 10 µM against CYP1A2 (human, 15 min); 5 to 10 µM at CYP2C9. Besides, on CYP3A4(BFC) (setting [5]), the IC50 was above 10 µM.
As to `Cc1cnc2[nH]cc(Cc3ccc(NCc4cnccc4C(F)(F)F)nc3F)c2c1` [Compound P-2062, [6-Fluoro-5-(5-methyl-1H-pyrrolo[2,3-b]pyridin-3-ylmethyl)-pyridin-2-yl]-(4-trifluoromethyl-pyridin-3-ylmethyl)-amine], at BCR-FMS/BaF3 cells, the “BCR/BaF3 selectivity (Kit IC50/Fms IC50)” value is on record as above 20. For the same compound, the IC50 on BCR-FMS/BaF3 cells (setting [1]) was below 0.1 µM; against c-Kit kinase it was above 0.1 µM; against CYP3A4(BQ) it was 5 to 10 µM; at CYP2D6, above 10 µM; against CYP1A2 (human, 15 min), above 10 µM; on CYP2C9 (read-out: Cyp IC50 (μM) 2C9) it was below 5 µM. For the same compound, on CYP3A4(BFC), the IC50 was 5 to 10 µM.
For the compound `FC(F)(F)c1ccncc1CNc1ccc(Cc2c[nH]c3ncc(Cl)cc23)cn1` [Compound P-2063, [5-(5-Chloro-1H-pyrrolo[2,3-b]pyridin-3-ylmethyl)-pyridin-2-yl]-(4-trifluoromethyl-pyridin-3-ylmethyl)-amine], the “BCR/BaF3 selectivity (Kit IC50/Fms IC50)” value on BCR-FMS/BaF3 cells is given as above 20. Also, the IC50 at BCR-FMS/BaF3 cells (setting [1]) was below 0.1 µM; against c-Kit kinase, below 0.1 µM; against CYP3A4(BQ), 5 to 10 µM; on CYP2D6, above 10 µM; against CYP1A2 (human, 15 min), above 10 µM; on CYP2C9 (read-out: Cyp IC50 (μM) 2C9), above 10 µM. Moreover, the IC50 against CYP3A4(BFC) was in the range of 5 to 10 µM.
`COc1ncc(F)cc1CNc1ncc(Cc2c[nH]c3ncc(Cl)cc23)cn1` [Compound P-2064, [5-(5-Chloro-1H-pyrrolo[2,3-b]pyridin-3-ylmethyl)-pyrimidin-2-yl]-(5-fluoro-2-methoxy-pyridin-3-ylmethyl)-amine]: the “BCR/BaF3 selectivity (Kit IC50/Fms IC50)” value on BCR-FMS/BaF3 cells is recorded as above 20. Besides, the IC50 was below 0.1 µM on BCR-FMS/BaF3 cells (setting [1]); above 0.1 µM against c-Kit kinase; above 10 µM on CYP3A4(BQ) (setting [4]); above 10 µM on CYP2D6; above 10 µM on CYP1A2 (human, 15 min); 5 to 10 µM against CYP2C9. Further, at CYP3A4(BFC) (setting [5]), the IC50 is above 10 µM.
For `COc1ncc(CNc2ncc(Cc3c[nH]c4ncc(C)cc34)cn2)cc1F` [Compound P-2073, (5-Fluoro-6-methoxy-pyridin-3-ylmethyl)-[5-(5-methyl-1H-pyrrolo[2,3-b]pyridin-3-ylmethyl)-pyrimidin-2-yl]-amine], the “BCR/BaF3 selectivity (Kit IC50/Fms IC50)” value at BCR-FMS/BaF3 cells is given as above 20. The IC50 at BCR-FMS/BaF3 cells (setting [1]) was below 0.1 µM; against c-Kit kinase it was above 0.1 µM; on CYP3A4(BQ) (setting [4]), above 10 µM; on CYP2D6, above 10 µM; against CYP1A2 (human, 15 min) it was above 10 µM; on CYP2C9 (read-out: Cyp IC50 (μM) 2C9) it was below 5 µM. At CYP3A4(BFC), this compound showed an IC50 of 5 to 10 µM.
On to `Cc1cnc2[nH]cc(Cc3cnc(NCc4cccc(C)n4)nc3)c2c1` [Compound P-2079, (6-Methyl-pyridin-2-ylmethyl)-[5-(5-methyl-1H-pyrrolo[2,3-b]pyridin-3-ylmethyl)-pyrimidin-2-yl]-amine], for which the “BCR/BaF3 selectivity (Kit IC50/Fms IC50)” value at BCR-FMS/BaF3 cells is below 20. Moreover, the IC50 at BCR-FMS/BaF3 cells (setting [1]) was below 0.1 µM; at c-Kit kinase it was below 0.1 µM; at CYP3A4(BQ), 5 to 10 µM; on CYP2D6 it was above 10 µM; against CYP1A2 (human, 15 min) it was above 10 µM; against CYP2C9, 5 to 10 µM. The IC50 at CYP3A4(BFC) (setting [5]) is below 5 µM.
With `Cc1cnc2[nH]cc(Cc3cnc(NCc4cccc(N5CCOCC5)n4)nc3)c2c1` [Compound P-2081, [5-(5-Methyl-1H-pyrrolo[2,3-b]pyridin-3-ylmethyl)-pyrimidin-2-yl]-(6-morpholin-4-yl-pyridin-2-ylmethyl)-amine], the “BCR/BaF3 selectivity (Kit IC50/Fms IC50)” value on BCR-FMS/BaF3 cells is given as below 20. Further, the IC50 at BCR-FMS/BaF3 cells (setting [1]) is above 0.1 µM; on c-Kit kinase, below 0.1 µM; against CYP3A4(BQ), 5 to 10 µM; at CYP2D6, above 10 µM; against CYP1A2 (human, 15 min), above 10 µM; on CYP2C9 (read-out: Cyp IC50 (μM) 2C9), below 5 µM. In addition, the IC50 on CYP3A4(BFC) (setting [5]) was below 5 µM.
For `Cc1cnc2[nH]cc(Cc3cnc(NCc4cccc(N5CCCC5)n4)nc3)c2c1` [Compound P-2082, [5-(5-Methyl-1H-pyrrolo[2,3-b]pyridin-3-ylmethyl)-pyrimidin-2-yl]-(6-pyrrolidin-1-yl-pyridin-2-ylmethyl)-amine], on BCR-FMS/BaF3 cells, the “BCR/BaF3 selectivity (Kit IC50/Fms IC50)” value is on record as below 20. The IC50 on BCR-FMS/BaF3 cells (setting [1]) was below 0.1 µM; against c-Kit kinase, below 0.1 µM; on CYP3A4(BQ) (setting [4]), below 5 µM; on CYP2D6 it was above 10 µM; on CYP1A2 (human, 15 min), above 10 µM; on CYP2C9 (read-out: Cyp IC50 (μM) 2C9), below 5 µM. Moreover, on CYP3A4(BFC) (setting [5]), the IC50 is below 5 µM.
Take `Cc1cnc2[nH]cc(Cc3ccc(NCc4ccc(Cl)nc4)nc3F)c2c1` [Compound P-2088, (6-Chloro-pyridin-3-ylmethyl)-[6-fluoro-5-(5-methyl-1H-pyrrolo[2,3-b]pyridin-3-ylmethyl)-pyridin-2-yl]-amine]: the “BCR/BaF3 selectivity (Kit IC50/Fms IC50)” value at BCR-FMS/BaF3 cells is above 20. In addition, the IC50 at BCR-FMS/BaF3 cells (setting [1]) is below 0.1 µM; against c-Kit kinase, above 0.1 µM; against CYP3A4(BQ) it was 5 to 10 µM; at CYP2D6, above 10 µM; on CYP1A2 (read-out: Cyp IC50 (μM) 1A2), above 10 µM; at CYP2C9 (read-out: Cyp IC50 (μM) 2C9), below 5 µM. This compound registered an IC50 at CYP3A4(BFC) of 5 to 10 µM.
